Legend:
[1] = tested on: morningglory; assay: Test B pre/postemergence morningglory; type: in vivo, Ipomoea hederacea
Procedure, shortened: (§1)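 Test chemicals in a non-phytotoxic solvent mixture with surfactant were sprayed preemergence onto planted seeds and postemergence onto plants 2 to 18 cm tall (1- to 4-leaf stage). After twelve to sixteen days in a greenhouse, injury was visually rated against untreated controls from 0 (no effect) to 10 (complete control).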

[2] = tested on: crabgrass; assay: Test B pre/postemergence crabgrass; type: in vivo, Digitaria sanguinalis
Procedure, shortened: as §1

[3] = tested on: corn; assay: Test B pre/postemergence corn; type: in vivo, Zea mays
Procedure, shortened: as §1

[4] = tested on: rape; assay: Test B pre/postemergence rape; type: in vivo, Brassica napus
Procedure, shortened: as §1

[5] = tested on: rice; assay: Test B flood test rice; type: in vivo, Oryza sativa; conditions: Pre-emergence
Procedure, shortened: (§2)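 Each value is a visual injury score relative to controls, with 10 meaning complete control and 0 no effect. Evaluation took place twelve to sixteen days after the 2-leaf-stage plants were treated and kept in the greenhouse.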

[6] = tested on: soybean; assay: Test B pre/postemergence soybean; type: in vivo, Glycine max
Procedure, shortened: as §1

[7] = tested on: bedstraw; assay: Test B pre/postemergence bedstraw; type: in vivo, Galium aparine
Procedure, shortened: as §1

[8] = tested on: giant foxtail; assay: Test B pre/postemergence giant foxtail; type: in vivo, Setaria faberii
Procedure, shortened: as §1

[9] = tested on: purple nutsedge; assay: Test B pre/postemergence purple nutsedge; type: in vivo, Cyperus rotundus
Procedure, shortened: as §1

[10] = tested on: wheat; assay: Test B pre/postemergence wheat; type: in vivo, Triticum aestivum
Procedure, shortened: as §1

[11] = tested on: smallflower flatsedge; assay: Test B flood test smallflower flatsedge; type: in vivo, Cyperus difformis; conditions: Pre-emergence
Procedure, shortened: as §2

[12] = tested on: duck salad; assay: Test B flood test duck salad; type: in vivo, Heteranthera limosa; conditions: Pre-emergence
Procedure, shortened: as §2

[13] = tested on: wild oat; assay: Test B pre/postemergence wild oat; type: in vivo, Avena fatua
Procedure, shortened: as §1

[14] = tested on: velvetleaf; assay: Test B pre/postemergence velvetleaf; type: in vivo, Abutilon theophrasti
Procedure, shortened: as §1

[15] = tested on: surinam grass; assay: Test B pre/postemergence surinam grass; type: in vivo, Brachiaria decumbens
Procedure, shortened: as §1

[16] = tested on: blackgrass; assay: Test B pre/postemergence blackgrass; type: in vivo, Alopecurus myosuroides
Procedure, shortened: as §1

[17] = Preemergence, Rate 62 g/ha, scale of 0 to 10 where 0 is no effect and 10 is complete control
[18] = Preemergence, Rate 250 g/ha, scale of 0 to 10 where 0 is no effect and 10 is complete control
[19] = Preemergence, Rate 500 g/ha, scale of 0 to 10 where 0 is no effect and 10 is complete control
[20] = Rate 62 g/ha, Postemergence, scale 0 to 10 (0 no effect, 10 complete control)
[21] = Rate 125 g/ha, Postemergence, scale of 0 to 10 where 0 is no effect and 10 is complete control
[22] = Rate 250 g/ha, Postemergence, scale of 0 to 10 where 0 is no effect and 10 is complete control
[23] = Rate 500 g/ha, Postemergence, scale 0 to 10, 0 no effect, 10 complete control
[24] = Rate 1000 g/ha, scale 0 to 10 (0 no effect, 10 complete control)
[25] = Rate 125 g/ha, flood test species, scale 0 to 10 where 0 is no effect and 10 is complete control
[26] = Rate 250 g/ha, flood-test species, scale 0 to 10, 0 is no effect, 10 is complete control
[27] = Rate 500 g/ha, flood test species, scale 0 to 10 (0 no effect, 10 complete control)

CCN(C(=O)n1oc(=O)n(C(C)C)c1=O)C1CCCCC1 [Compound 309]
1: Morningglory plant response rating [1, 20] | Morningglory plant response rating [1, 21] | Crabgrass plant response rating (0 to 10 scale) ([2]; Preemergence, Rate 125 g/ha)
0: Morningglory plant response rating [1, 17] | Morningglory plant response rating (0 to 10 scale) ([1]; Preemergence, Rate 125 g/ha) | Morningglory plant response rating [1, 18] | Morningglory plant response rating [1, 19] | Crabgrass plant response rating [2, 17] | Crabgrass plant response rating [2, 20] | Crabgrass plant response rating [2, 21] | Plant response rating, Crabgrass [2, 22] | Corn plant response rating [3, 17] | Corn plant response rating (0 to 10 scale) ([3]; Preemergence, Rate 125 g/ha) | Corn plant response rating [3, 20] | Corn plant response rating [3, 21] | Plant response rating, Corn [3, 22] | Corn plant response rating [3, 23] | Rape plant response rating [4, 17] | Rape plant response rating (0 to 10 scale) ([4]; Preemergence, Rate 125 g/ha) | Rape plant response rating [4, 18] | Rape plant response rating [4, 19] | Rape plant response rating [4, 20] | Rape plant response rating [4, 21] | Plant response rating, Rape [4, 22] | Rice plant response rating [5, 24] | Rice plant response rating [5, 25] | Rice plant response rating [5, 26] | Rice plant response rating [5, 27] | Soybean plant response rating [6, 17] | Soybean plant response rating (0 to 10 scale) ([6]; Preemergence, Rate 125 g/ha) | Soybean plant response rating [6, 18] | Soybean plant response rating [6, 19] | Bedstraw plant response rating [7, 17] | Bedstraw plant response rating (0 to 10 scale) ([7]; Preemergence, Rate 125 g/ha) | Bedstraw plant response rating [7, 18] | Bedstraw plant response rating [7, 19] | Bedstraw plant response rating [7, 20] | Bedstraw plant response rating [7, 21] | Plant response rating, Bedstraw [7, 22] | Bedstraw plant response rating [7, 23] | Giant foxtail plant response rating [8, 20] | Giant foxtail plant response rating [8, 21] | Plant response rating, Giant foxtail [8, 22] | Nutsedge plant response rating [9, 17] | Nutsedge plant response rating (0 to 10 scale) ([9]; Preemergence, Rate 125 g/ha) | Nutsedge plant response rating [9, 18] | Nutsedge plant response rating [9, 19] | Nutsedge plant response rating [9, 20] | Nutsedge plant response rating [9, 21] | Plant response rating, Nutsedge [9, 22] | Wheat plant response rating [10, 17] | Wheat plant response rating (0 to 10 scale) ([10]; Preemergence, Rate 125 g/ha) | Wheat plant response rating [10, 18] | Wheat plant response rating [10, 19] | Wheat plant response rating [10, 20] | Wheat plant response rating [10, 21] | Plant response rating, Wheat [10, 22] | S. Flatsedge plant response rating [11, 24] | S. Flatsedge plant response rating [11, 25] | S. Flatsedge plant response rating [11, 26] | S. Flatsedge plant response rating [11, 27] | Ducksalad plant response rating [12, 24] | Ducksalad plant response rating [12, 25] | Ducksalad plant response rating [12, 26] | Ducksalad plant response rating [12, 27] | Wild oats plant response rating [13, 17] | Wild oats plant response rating (0 to 10 scale) ([13]; Preemergence, Rate 125 g/ha) | Wild oats plant response rating [13, 18] | Wild oats plant response rating [13, 20] | Wild oats plant response rating [13, 21] | Plant response rating, Wild oats [13, 22] | Velvetleaf plant response rating [14, 17] | Velvetleaf plant response rating (0 to 10 scale) ([14]; Preemergence, Rate 125 g/ha) | Velvetleaf plant response rating [14, 18] | Velvetleaf plant response rating [14, 20] | Velvetleaf plant response rating [14, 21] | Plant response rating, Velvetleaf [14, 22] | B. signalgrass plant response rating [15, 17] | B. signalgrass plant response rating (0 to 10 scale, 0 is no effect, 10 is complete control) ([15]; Preemergence, Rate 125 g/ha) | B. signalgrass plant response rating [15, 18] | B. signalgrass plant response rating [15, 20] | B. signalgrass plant response rating [15, 21] | Plant response rating, B. signalgrass [15, 22] | B. signalgrass plant response rating [15, 23] | Blackgrass plant response rating [16, 17] | Blackgrass plant response rating (0 to 10 scale) ([16]; Preemergence, Rate 125 g/ha) | Blackgrass plant response rating [16, 20] | Blackgrass plant response rating [16, 21] | Plant response rating, Blackgrass [16, 22]
9: Giant foxtail plant response rating (0 to 10 scale) ([8]; Preemergence, Rate 125 g/ha) | Giant foxtail plant response rating [8, 18] | Giant foxtail plant response rating [8, 19]
2: Plant response rating, Morningglory [1, 22] | Crabgrass plant response rating [2, 18] | Corn plant response rating [3, 18] | Soybean plant response rating [6, 20] | Soybean plant response rating [6, 21] | Plant response rating, Soybean [6, 22] | Wild oats plant response rating [13, 19] | Velvetleaf plant response rating [14, 19] | B. signalgrass plant response rating [15, 19] | Blackgrass plant response rating [16, 18] | Blackgrass plant response rating [16, 23]
4: Corn plant response rating [3, 19]
6: Crabgrass plant response rating [2, 19] | Blackgrass plant response rating [16, 19]
5: Giant foxtail plant response rating [8, 17]

Reference: US6737383B1, “Herbicidal oxadiazolidines” (priority 1999, dated 2004)
